# Assay results as given in patent US8178534B2, “cMET inhibitors” (Takeda Pharmaceutical Company Limited, priority 2008, dated 2012).
# pEC50, pIC50: −log10 of the molar value. Where a name gives a salt, the structure may show the parent alone.
# What was measured:
# EBC1 = assay: Inhibition of cell viability (MTS), EBC1; assay type: cell-based; conditions: EBC1 cells, 96 hours incubation
# Description: (§1) Cells were maintained at 37° C. in a humidified atmosphere containing 5%-8% CO2 following the instructions of the supplier (American Type Culture Collection (Rockville, Md.)). Inhibition of cell viability was determined for a panel of tumor cell lines (MKN45, EBC1 and A549), using the soluble tetrazolium salt, MTS (Promega, Madison, Wis.). Cells were seeded at 2,000-7,500 cells/well in 96-well tissue culture plates and were allowed to attach for approximately 24 hours prior to addition of compounds or DMSO vehicle. […] Cells were treated in duplicate with test compounds. Compounds were serially diluted (1:2.5) from column 1 to 11 and column 12 contained DMSO vehicle. Compounds were diluted into cell growth medium then compound solution was added to cells. Equal amounts of DMSO were added to cells (final concentration is 0.5%). After background correction and normalization against DMSO-treated cells, EC50 values were calculated using non-linear curve-fitting of the cell viability as a function of compound concentration. The MKN45 and EBC1 cell lines contain high levels of phospho-Met and are dependent on cMET for proliferation, whereas the A549 line is used as negative control.
# (§2) EC50 values may be calculated by non-linear curve fitting of the compound concentrations and fluorescence intensities to the standard EC50 equation.
# [1] = target: T1, cMET enzyme (amino acids 1023-1360) (Homo sapiens, UniProt P08581); assay: Determination of inhibition of cMET (capillary electrophoresis, phosphorylated peptide product); assay type: biochemical; conditions: 1.2 nM cMET, 50 μM ATP, 2 μM FL-2 peptide, 2 hours room temperature
# T1 construct: The cMET enzyme (amino acids 1023-1360) nominally at 24 μM was held at −80° C. until use; His tag (N, cleaved yes); made in house; host or cells: Sf9 cells
# Description: The inhibitory property of a compound relative to cMET catalysis was determined by use of capillary electrophoresis with fluorescence quantification of a phosphorylated peptide product for cMET. The cMET enzyme (amino acids 1023-1360) nominally at 24 μM was held at −80° C. until use, in a buffer containing 25 mM Tris-HCl pH 8.5, 150 mM NaCl, 3 mM DTT and 10% glycerol. […] Following purification, the tag was removed and enzyme concentrated. […] To activate the enzyme fully, frozen cMET was thawed quickly and activated with the addition of assay buffer (50 mM HEPES pH 7.5, 10 mM NaCl, 10 mM MgCl2, 0.01% Brij® 35), 1.25 mM ATP, 5 mM MgCl2 and 5 mM DTT at a cMET concentration of 2.4 μM followed by a 30 minute incubation at room temperature. […] Next, cMET enzyme (1.2 nM final) was added and the system incubated at room temperature for 20 minutes. Catalysis was initiated by the addition of ATP (50 μM final). Assays were incubated at room temperature for 2 hours then quenched by the addition of EDTA. Phosphorylated peptide product was quantified by monitoring fluorescence during capillary electrophoresis with Caliper LifeSciences LabChip 3000 under the following settings: base pressure=−0.1 psi, screen pressure=−1.2 psi, downstream voltage=−500 V, upstream voltage=−2300 V, chip type=TC372. The elution buffer was identical to the assay buffer except for the absence of DTT, FL-2 and ATP and the addition of 0.1% coating reagent (Caliper). […] Peak height was quantified and used to determine enzyme velocities.
# IC50 values were calculated by non-linear least squares curve fitting of the standard IC50 equation to background-corrected cMET velocity versus compound concentration.
# A549 = assay: Inhibition of cell viability (MTS), A549 (negative control line); assay type: cell-based; conditions: A549 cells (negative control), 96 hours incubation
# Description: as §1, §2
# MKN45 = assay: Inhibition of cell viability (MTS), MKN45; assay type: cell-based; conditions: MKN45 cells, 96 hours incubation
# Description: as §1, §2
# T1 sequence (P08581 1023-1360): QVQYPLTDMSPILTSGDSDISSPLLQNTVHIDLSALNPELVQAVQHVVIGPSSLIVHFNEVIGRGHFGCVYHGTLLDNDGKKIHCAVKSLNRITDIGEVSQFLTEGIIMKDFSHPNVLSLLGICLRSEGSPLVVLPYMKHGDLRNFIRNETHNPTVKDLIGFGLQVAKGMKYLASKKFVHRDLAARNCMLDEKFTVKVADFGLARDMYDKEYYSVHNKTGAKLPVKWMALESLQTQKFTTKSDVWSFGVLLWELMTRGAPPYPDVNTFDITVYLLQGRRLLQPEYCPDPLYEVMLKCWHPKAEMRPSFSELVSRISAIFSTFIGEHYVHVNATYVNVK
SMILES,pEC50 (EBC1),pIC50 [1],pEC50 (A549),pEC50 (MKN45),"pEC50 (EBC1; Homo sapiens, EBC-1, 96 h)","pEC50 (A549; Homo sapiens, A549, 96 h)","pEC50 (MKN45; Homo sapiens, MKN-45, 96 h)"
"CC(c1ccc2nc(NC(=O)C3CC3)cn2n1)c1nnc2ccc(-c3cnn(C)c3)cn12 (stereo not shown) [49 (free base), N-(6-(1-(6-(1-methyl-1H-pyrazol-4-yl)-[1,2,4]triazolo[4,3-a]pyridin-3-yl)ethyl)imidazo[1,2-b]pyridazin-2-yl)cyclopropanecarboxamide]",> 7.52,> 7.52,< 4.30,7.00 to 7.22,,,
"COc1ccc(-c2ccc3nnc(C(F)(F)c4ccc5nc(NC(=O)C6CC6)cn5n4)n3c2)cc1 [Compound 75, N-(6-(difluoro(6-(4-methoxyphenyl)-[1,2,4]triazolo[4,3-a]pyridin-3-yl)methyl)imidazo[1,2-b]pyridazin-2-yl)cyclopropanecarboxamide]",,> 7.52,,,> 7.52,4.60 to 5.10,> 7.52
"O=C(Nc1cn2nc(C(F)(F)c3nnc4ccc(-c5cccnc5)cn34)ccc2n1)C1CC1 [Compound 78, N-(6-(difluoro(6-(pyridin-3-yl)-[1,2,4]triazolo[4,3-a]pyridin-3-yl)methyl)imidazo[1,2-b]pyridazin-2-yl)cyclopropanecarboxamide]",,7.23 to 7.52,,,> 7.52,< 4.30,> 7.52
O=C(Nc1cn2nc(Cn3nnc4ccc(-c5cccc(F)c5)cc43)ccc2n1)C1CC1 [Compound 14],,7.23 to 7.52,,,6.70 to 7.00,5.80 to 6.22,6.20 to 6.60
"O=C(NC1CC1)c1ccc2nnc(Sc3ccc4nc(NC(=O)C5CC5)cn4n3)n2c1 [Compound 34, 3-(2-(cyclopropanecarboxamido)imidazo[1,2-b]pyridazin-6-ylthio)-N-cyclopropyl-[1,2,4]triazolo[4,3-a]pyridine-6-carboxamide]",,7.00 to 7.22,,,< 6.70,< 4.30,< 6.20
"O=C(Nc1cn2nc(C(F)(F)c3nnc4ccc(-c5ccncc5)cn34)ccc2n1)C1CC1 [Compound 79, N-(6-(difluoro(6-(pyridin-4-yl)-[1,2,4]triazolo[4,3-a]pyridin-3-yl)methyl)imidazo[1,2-b]pyridazin-2-yl)cyclopropanecarboxamide]",,7.00 to 7.22,,,> 7.52,< 4.30,> 7.52
"CC(c1ccc2nc(NC(=O)C3CC3)cn2n1)c1nnc2ccccn12 (stereo not shown) [Compound 52, N-(6-(1-([1,2,4]triazolo[4,3-a]pyridin-3-yl)ethyl)imidazo[1,2-b]pyridazin-2-yl)cyclopropanecarboxamide]",,< 7.00,,,< 7.00,< 4.30,< 7.00
"O=C(Nc1cn2nc(Sc3nnc4ccc(C#CCO)cn34)ccc2n1)C1CC1 [Compound 37, N-(6-(6-(3-hydroxyprop-1-ynyl)-[1,2,4]triazolo[4,3-a]pyridin-3-ylthio)imidazo[1,2-b]pyridazin-2-yl)cyclopropanecarboxamide]",,7.23 to 7.52,,,6.70 to 7.00,< 4.30,6.20 to 6.60
"NC(=O)c1cccc(-c2ccc3nnc(C(F)(F)c4ccc5nc(NC(=O)C6CC6)cn5n4)n3c2)c1 [Compound 90, 3-(3-((2-(cyclopropanecarboxamido)imidazo[1,2-b]pyridazin-6-yl)difluoromethyl)-[1,2,4]triazolo[4,3-a]pyridin-6-yl)benzamide]",,> 7.52,,,> 7.52,< 4.30,> 7.52
"Cc1csc(-c2ccc3nnc(C(C)c4ccc5nc(NC(=O)C6CC6)cn5n4)n3c2)c1 (stereo not shown) [Compound 62, N-(6-(1-(6-(4-methylthiophen-2-yl)-[1,2,4]triazolo[4,3-a]pyridin-3-yl)ethyl)imidazo[1,2-b]pyridazin-2-yl)cyclopropanecarboxamide]",,> 7.52,,,> 7.52,5.10 to 5.30,> 7.52
"COCc1nc(-c2ccc3nnc(Sc4ccc5nc(NC(=O)C6CC6)cn5n4)n3c2)no1 [Compound 39, N-(6-(6-(5-(methoxymethyl)-1,2,4-oxadiazol-3-yl)-[1,2,4]triazolo[4,3-a]pyridin-3-ylthio)imidazo[1,2-b]pyridazin-2-yl)cyclopropanecarboxamide]",,7.00 to 7.22,,,7.00 to 7.46,5.80 to 6.22,6.60 to 7.00
"Cc1cc(F)cc(-c2ccc3nnc(C(F)(F)c4ccc5nc(NC(=O)C6CC6)cn5n4)n3c2)c1 [Compound 97, N-(6-(difluoro(6-(3-fluoro-5-methylphenyl)-[1,2,4]triazolo[4,3-a]pyridin-3-yl)methyl)imidazo[1,2-b]pyridazin-2-yl)cyclopropanecarboxamide]",,> 7.52,,,> 7.52,< 4.30,> 7.52
"Cn1cc(-c2ccc3nnn(Cc4ccc5nc(NC(=O)C6CC6)cn5n4)c3c2)cn1 [13 (TFA Salt), Cyclopropanecarboxylic acid {6-[6-(1-methyl-1H-pyrazol-4-yl)-benzotriazol-1-ylmethyl]-imidazo[1,2-b]pyridazin-2-yl}-amide]",> 7.52,7.23 to 7.52,5.10 to 5.30,7.00 to 7.22,,,
"COc1ccc(-c2ccc3nnc(C(F)(F)c4ccc5nc(NC(=O)C6CC6)cn5n4)n3c2)cn1 [Compound 86, N-(6-(difluoro(6-(6-methoxypyridin-3-yl)-[1,2,4]triazolo[4,3-a]pyridin-3-yl)methyl)imidazo[1,2-b]pyridazin-2-yl)cyclopropanecarboxamide]",,7.23 to 7.52,,,> 7.52,< 4.30,> 7.52
"CC(c1ccc2nc(NC(=O)C3CC3)cn2n1)c1nnc2ccc(-c3cn[nH]c3)cn12 (stereo not shown) [Compound 64, N-(6-(1-(6-(1H-pyrazol-4-yl)-[1,2,4]triazolo[4,3-a]pyridin-3-yl)ethyl)imidazo[1,2-b]pyridazin-2-yl)cyclopropanecarboxamide]",,> 7.52,,,6.60 to 7.00,< 4.30,6.60 to 7.00
"Cc1ccc2nnn(Cc3ccc4nc(NC(=O)C5CC5)cn4n3)c2c1 [Compound 12, N-(6-((6-methyl-1H-benzo[d][1,2,3]triazol-1-yl)methyl)imidazo[1,2-b]pyridazin-2-yl)cyclopropanecarboxamide]",,< 7.00,,,< 6.70,< 4.30,< 6.20
"CC(c1ccc2nc(NC(=O)C3CC3)cn2n1)c1nnc2ccc(-c3cnn(C)c3)cn12 (stereo not shown) [49 (HCl Salt), N-(6-(1-(6-(1-methyl-1H-pyrazol-4-yl)-[1,2,4]triazolo[4,3-a]pyridin-3-yl)ethyl)imidazo[1,2-b]pyridazin-2-yl)cyclopropanecarboxamide]",,> 7.52,4.60 to 5.10,,> 7.52,,7.23 to 7.52
"COc1ccc(-c2ccc3nnc(C(C)c4ccc5nc(NC(=O)C6CC6)cn5n4)n3c2)cc1 (stereo not shown) [Compound 56, N-(6-(1-(6-(4-methoxyphenyl)-[1,2,4]triazolo[4,3-a]pyridin-3-yl)ethyl)imidazo[1,2-b]pyridazin-2-yl)cyclopropanecarboxamide]",,> 7.52,,,> 7.52,< 4.30,> 7.52
"CN(C)C(=O)Cn1cc(-c2ccc3nnc(Sc4ccc5nc(NC(=O)C6CC6)cn5n4)n3c2)cn1 [Compound 30, N-(6-(6-(1-(2-(dimethylamino)-2-oxoethyl)-1H-pyrazol-4-yl)-[1,2,4]triazolo[4,3-a]pyridin-3-ylthio)imidazo[1,2-b]pyridazin-2-yl)cyclopropanecarboxamide]",,7.23 to 7.52,,,< 6.70,< 4.71,< 6.20
